Measured values as given in patent publication US20100152114A1, “Antioxidant activity of GH-RH Antagonists” (priority 2008, published 2010).
Ends that are not written are not given here.

Experiments:
Type in all cases: cell-based
[1] = system: LNCaP prostate cancer cell line; assay: Cell proliferation rate assay in LNCaP cells; details: vs LNCaP cells cultured without peptide, 72 hours incubation (FIG. 1)
Source text: (A) is a graphic presentation of the changes in the proliferation rate of the LNCaP prostate cancer cell line after exposure to GHRH antagonist JMR-132 and GHRH (1-29)NH2. Percentage increase or decrease are expressed vs LNCaP cells cultured in the absence of JMR-132 or GHRH (1-29)NH2*(P<0.05), **(P<0.005).
The rate of the cell proliferation […] microscope using the trypan blue assay or a Z series Coulter Counter (Beckman Coulter, Fullerton, Calif., USA). The data are expressed as the mean±SEM. Statistical evaluation of the results was performed by the Student's t test (two-tailed). P values shown are against the control group.
(§1) LNCaP prostate cancer cells were exposed to two concentrations of GHRH(1-29)NH2 and JMR-132. […] However, GHRH (1-29)NH2 at 0.1 μM concentration stimulated the proliferation rate of LNCaP cells by 13%. GHRH antagonist JMR-132 at the doses of 0.1 μM and 1 μM decreased the proliferation of LNCaP prostate cancer cell line by 32% and 37% respectively. In addition, the expression levels of the PCNA (M.W: 36 KDa) were evaluated by Western Blot. The PCNA protein expression was increased in the cells exposed to 0.1 μM and 1 μM of GHRH (1-29)NH2 (R.I: 0.77 and 0.925 respectively) and decreased in the cells that incubated with 0.1 μM of GHRH antagonist JMR-132. (R.I: 0.495) as compared to control (R.I: 0.656).

[2] = system: Proliferating Cell Nuclear Antigen (PCNA); assay: Western Blot of PCNA expression in LNCaP cells; details: control R.I: 0.656
Protocol: (B) is a Western Blot analysis of expression of the Proliferating Cell Nuclear Antigen (PCNA) in LNCaP prostate cancer cell line after exposure to GHRH antagonist JMR-132, and GHRH(1-29)NH2 n=2.
(§2) Prostate cancer cells LNCaP and breast cancer cells MCF-7 were obtained from American Type Culture Collection (Manassas, Va.) and were cultured as described previously. The antibodies that detect P53, PCNA, GPX1, SOD1, NQ01, Thioredoxin 1, COX2 and COX IV were purchased from Cell Signalling (Danvers, Mass.). The antibodies that detect β actin, NFκB50, pNFκB50, caspase 3 and its cleaved form were purchased from Santa Cruz Biotechnology (Santa Cruz, Calif.). The antibodies against GHRH-R (batch number: SV95) and SV1 (batch number: JH 2317/5) were raised in our laboratory. The signals for the immunoreactive proteins were visualized in a Chemi Doc XRS system (Biorad, Hercules, Calif.). The western Blot assay as well the quantification analysis of the blots was performed as described previously.
as §1

[3] = system: wild-type p53 tumor suppressor protein; assay: Western Blot of wild-type p53 expression in LNCaP cells; details: 72 hour exposure, control R.I: 0.436
Protocol: as §2
LNCaP prostate cancer cell line cultured in vitro was exposed to two concentrations of JMR-132 and GHRH(1-29)NH2 and the expression level of the p53 tumor suppressor protein (M.W: 53 KDa) was measured by Western Blot. The p53 protein expression was higher in the cells exposed to 0.1 μM and 1 μM GHRH antagonist JMR-132 (R.I: 0.583 and 0.658 respectively) and lower in the cells incubated with 0.1 μM and 1 μM GHRH (1-29)NH2 (R.I: 0.376 and 0.264 respectively) as compared to control (R.I: 0.436)

phosphorylated NFκB p50 = assay: Western Blot of phosphorylated NFκB p50 in LNCaP cells; details: 1 μM, 72 hours, control R.I: 0.521
Protocol: (§3) (A): is a Western Blot analysis of expression of the phosphorylated NFκB p50, caspase 3 protein and its cleaved form in LNCaP prostate cancer cell line after exposure to GHRH antagonist JMR-132 and GHRH (1-29)NH2. n=2
as §2
(§4) LNCaP cells cultured in vitro were exposed to 1 μM GHRH antagonist JMR-132 and 1 μM GHRH(1-29)NH2. The expression levels of NFκB p50, the phosphorylated NFκB p50, caspase 3 (M.W: 35 KDa) and the cleaved caspase 3 were detected by Western Blot. […]

caspase 3 = assay: Western Blot of caspase 3 in LNCaP cells; details: 1 μM, 72 hours, control R.I: 0.108
Protocol: as §3, §2, §4

cleaved caspase 3 = assay: Western Blot of cleaved caspase 3 in LNCaP cells; details: 1 μM, 72 hours, control R.I: 0.320
Protocol: as §3, §2, §4

NFκB p50 = assay: Western Blot of NFκB p50 in LNCaP cells; details: 1 μM, 72 hours
Protocol: (B): is a Western Blot analysis of expression of the NFκB p50. n=2
as §2, §4

GPX1 = assay: Western Blot of GPX1 in LNCaP cells; details: 1 μM, 72 hour exposure, control R.I: 0.107
Protocol: (§5) FIG. 7: is a Western Blot analysis of expression of the antioxidant enzymes TRX1, NQ01, GPX1 and SOD1 in LNCaP prostate cancer cell line after 72 hour exposure to GHRH antagonist JMR-132 and GHRH(1-29)NH2 n=2.
as §2
(§6) LNCaP prostate cancer cell line cultured in vitro was exposed to 1 μM JMR-132 and GHRH(1-29)NH2. The expression levels of the detoxifying enzymes were measured by Western Blot. The GPX1 (M.W: 22 Kda) protein expression was higher in the cells exposed to GHRH (1-29)NH2 (R.I: 0.126) and lower in the cells incubated with GHRH antagonist JMR-132 (R.I: 0.035), as compared to control (R.I:0.107). […]

SOD1 = assay: Western Blot of SOD1 in LNCaP cells; details: 1 μM, 72 hour exposure, only detectable with GHRH (1-29)NH2
Protocol: as §5, §2, §6

NQ01 = assay: Western Blot of NQ01 in LNCaP cells; details: 1 μM, 72 hour exposure, control R.I: 0.175
Protocol: as §5, §2, §6

thioredoxin 1 = assay: Western Blot of thioredoxin 1 in LNCaP cells; details: 1 μM, 72 hour exposure, control R.I: 0.210
Protocol: as §5, §2, §6

COX 2 = assay: Western Blot of COX 2 in LNCaP cells; details: 1 μM, 72 hour incubation, control R.I: 0.822
Protocol: (§7) FIG. 4: is a Western Blot analysis of expression of the enzyme COX2 and COXIV enzymes in LNCaP prostate cancer cell line after 72 hour incubation with GHRH antagonist JMR-132 and GHRH(1-29)NH2. n=2
as §2
(§8) After LNCaP prostate cancer cells cultured in vitro were exposed to 1 μM GHRH antagonist JMR-132 and GHRH(1-29)NH2, the expression levels of the enzymes COX 2 and COX IV were measured by Western Blot. […]

COX IV = assay: Western Blot of COX IV in LNCaP cells; details: 1 μM, 72 hour incubation, control R.I: 0.139
Protocol: as §7, §2, §8

N-nitrotyrosine = assay: Protein oxidation: nitrotyrosine immunoblot in LNCaP cells; details: 1 μM, 72 hour, control R.I: 2.903
Protocol: (§9) The detection of the carbonyl groups, the nitrotyrosine and the lipid peroxidation was performed with the Oxiselect Protein carbonyl Immunoblot, the Oxiselect Nitrotyrosine Immunoblot Kit and the Oxiselect Malondialdehyde Immunoblot Kit respectively (Cell Biolabs, San Diego, Calif.) according the manufacturer s instructions. The detection of the lipid peroxidation using a primary rabbit anti-MDA antibody (Cell Biolabs, San Diego, Calif.) according the manufacturer' instructions. The β-actin signal was used as control.
(§10) LNCaP prostate cancer cell line cultured in vitro were exposed to 1 μM JMR-132 or 1 μM GHRH(1-29)NH2. The levels of the oxidation of the proteins were determined by the detection of the N-nitrotyrosine and the protein carbonyl groups. Both were elevated in the cells exposed to GHRH (1-29)NH2 (R.I: 3.282, 7.415) and decreased in the cells incubated with GHRH antagonist JMR-132 (R.I: 1.251, 4.275), as compared to control (R.I: 2.903, 5.846). The levels of the lipid peroxidation, determined by the detection of the malondialdehyde (MDA), were increased in cells exposed to GHRH (1-29)NH2 (R.I:4.89) and decreased in cells incubated with GHRH antagonist JMR-132 (R.I: 2.973) as compared to control (R.I: 4.433). […]

protein carbonyl groups = assay: Protein oxidation: protein carbonyl immunoblot in LNCaP cells; details: 1 μM, 72 hour, control R.I: 5.846
Protocol: as §9, §10

malondialdehyde (MDA) = assay: Lipid peroxidation: malondialdehyde immunoblot in LNCaP cells; details: 1 μM, 72 hour, control R.I: 4.433
Protocol: as §9, §10

reactive oxygen species = assay: Intracellular generation of reactive oxygen species (aminophenyl fluorescein) in LNCaP cells; details: 10^−6 M, 30 minutes at 37° C.
Protocol: Percentage increase or decrease are expressed vs LNCaP cells cultured in the absence of JMR-132 or GHRH (1-29)NH2. *** (P<0.005).
The detection of the Reactive Oxygen Species was carried out using aminophenyl fluorescein, an indicator for the highly reactive oxygen species (Invitrogen, Carlsbad, Calif., USA). This fluorescein derivative is non fluorescent until it reacts with the hydroxyl radical, peroxynitrite anion or hypochlorite anion. […] LNCaP prostate cancer cells were seeded in 200 μl of RPMI 1640 containing 10 μM aminophenyl fluorescein at a density of 10^3 cells/well onto a 48-well plate and were incubated for 30 minutes at 37° C. with GHRH (1-29)NH2 or JMR-132 at a concentration of 10^−6 M. The fluorescence was measured using a fluorescence plate reader (VICTOR^3 Multilabel Plate Reader, Perkin Elmer, Shelton, Conn., USA) with an excitation wavelength of 490 nm and an emission wavelength of 515 nm.
LNCaP prostate cancer cell line cultured in vitro were exposed to 1 μM JMR-132 or 1 μM GHRH(1-29)NH2. The levels of the oxidation of the proteins were determined by the detection of the N-nitrotyrosine and the protein carbonyl groups. Both were elevated in the cells exposed to GHRH (1-29)NH2 (R.I: 3.282, 7.415) and decreased in the cells incubated with GHRH antagonist JMR-132 (R.I: 1.251, 4.275), as compared to control (R.I: 2.903, 5.846). […]

GHRH(1-29)NH2 (YADAIFTNSYRKVLGQLSARKLLQDIMSR-NH2; UniProt P01286 32-60, looked up, fragment) [Growth Hormone-Releasing Hormone (1-29) amide, agonist peptide used for comparison with the antagonist]
increase (stimulation) of the proliferation rate of LNCaP cells ([1]; 0.1 μM): 13% | increase of the proliferation rate of LNCaP cells ([1]; 1 μM): 7% | PCNA protein expression (R.I) ([2]; 0.1 μM): 0.77 | PCNA protein expression (R.I) ([2]; 1 μM): 0.925 | p53 protein expression (R.I) ([3]; 0.1 μM): 0.376 | p53 protein expression (R.I) ([3]; 1 μM): 0.264 | expression of the phosphorylated NFκB (R.I) (phosphorylated NFκB p50): 0.623 | expression of caspase 3 protein (R.I) (caspase 3): 0.083 | expression of cleaved caspase 3 (R.I) (cleaved caspase 3): 0.182 | expression of the NFκB (R.I), not influenced (NFκB p50): 0.766 | GPX1 protein expression (R.I) (GPX1): 0.126 | SOD1 protein expression (R.I) (SOD1): 0.111 | NQ01 protein expression (R.I) (NQ01): 0.196 | levels of the thioredoxin 1 protein (R.I) (thioredoxin 1): 0.277 | COX 2 protein expression (R.I) (COX 2): 0.928 | COX IV protein expression (R.I) (COX IV): 0.237 | N-nitrotyrosine level, protein oxidation (R.I) (N-nitrotyrosine): 3.282 | protein carbonyl groups level, protein oxidation (R.I) (protein carbonyl groups): 7.415 | lipid peroxidation, malondialdehyde (MDA) (R.I) (malondialdehyde (MDA)): 4.89 | generation of the reactive oxygen species, higher than control (reactive oxygen species): 36%

[PhAc^0-Tyr^1, D-Arg^2, Cpa^6, Ala^8, Har^9, Tyr(Me)^10, His^11, Abu^15, His^20, Nle^27, D-Arg^28, Har^29]hGH-RH(1-29)NH2 [JMR-132]
decrease of the proliferation of LNCaP prostate cancer cell line ([1]; 0.1 μM): 32% | decrease of the proliferation of LNCaP prostate cancer cell line ([1]; 1 μM): 37% | PCNA protein expression (R.I) ([2]; 0.1 μM): 0.495 | p53 protein expression (R.I) ([3]; 0.1 μM): 0.583 | p53 protein expression (R.I) ([3]; 1 μM): 0.658 | expression of the phosphorylated NFκB (R.I) (phosphorylated NFκB p50): 0.451 | expression of caspase 3 protein (R.I) (caspase 3): 0.120 | expression of cleaved caspase 3 (R.I) (cleaved caspase 3): 0.391 | expression of the NFκB (R.I), not influenced (NFκB p50): 0.786 | GPX1 protein expression (R.I) (GPX1): 0.035 | NQ01 protein expression (R.I) (NQ01): 0.025 | levels of the thioredoxin 1 protein (R.I) (thioredoxin 1): 0.196 | COX 2 protein expression (R.I) (COX 2): 0.532 | COX IV protein expression (R.I) (COX IV): 0.077 | N-nitrotyrosine level, protein oxidation (R.I) (N-nitrotyrosine): 1.251 | protein carbonyl groups level, protein oxidation (R.I) (protein carbonyl groups): 4.275 | lipid peroxidation, malondialdehyde (MDA) (R.I) (malondialdehyde (MDA)): 2.973 | generation of the reactive oxygen species, lower than control (reactive oxygen species): 23%
